Results taken from article PMC6478823, “A suite of phenotypic assays to ensure pipeline diversity when prioritizing drug-like Cryptosporidium growth inhibitors” (Nature Communications, 2019).

Assays:
[1] = system: HCT-8 cell DNA replication; assay: Host cell DNA replication (EdU labeling); type: cell-based, human; settings: 10 mM, positive control
C. parvum = assay: DNA replication assay (EdU incorporation); type: cell-based, Cryptosporidium parvum; settings: 10 mM, positive control
From the text: Following cell invasion, Cryptosporidium trophozoites grow and multiply to give rise to multinucleated type I meronts (Fig. 3a). The thymidine analog 5-ethynyl-2′-deoxyuridine (EdU) is efficiently incorporated into newly synthesized DNA, and can be detected using click chemistry. We used EdU to measure parasite intracellular DNA replication, as a surrogate for the more complex phenotype of intracellular growth and division. The approach for differentially labeling newly synthesized parasite DNA compared to host cell DNA was to take advantage of the fact that C. parvum replicates more quickly than the nearly confluent host cells. Thus, by adding EdU shortly before egress, it was possible to preferentially label replicating parasites (Fig. 3b, c). DNA staining with Hoechst labeled all of the host and parasite DNA, making it challenging to visualize and quantify parasite DNA. A simple DNA stain would also not distinguish pre-existing DNA from newly synthesized DNA (Fig. 3c). In contrast, EdU labeling only occurred with incorporation into newly synthesized DNA. Incorporated EdU was then easily stained for immunofluorescence and labeled parasites were quantified using high-content microscopy and an NIH ImageJ macro (Fig. 3c, DMSO condition). The […] hydroxyurea (10 mM), a known inhibitor of DNA replication, was used as a positive control for assay validation. […] Compounds with activity in this assay cannot be concluded to specifically target DNA replication, which is a complex phenotype.
Confluent HCT-8 cell monolayers in glass bottom plates were infected with C. parvum, and compounds were added at EC90 following invasion. At 9 h post-infection, 10 µM EdU was added, followed by incubation for another 2 h, and then washing, fixing, and staining for microscopy. […] 40 × dry objective (NA = 0.7); scale = 5 µm. Arrows indicate selected parasites with EdU-labeled DNA. d Quantification of EdU incorporation. […] Data are mean and SD of 2–5 biological replicates.
After incubation of cells with EdU for 2 h, cells were washed 3 times with PBS-D-gal and then fixed with PBS containing 4% PFA. Cells were then permeabilized and stained for EdU using the Click-iT® assay kit (Thermo Fisher Scientific, catalog# C10340) as per the manufacturer’s instructions. Cells were then imaged by focusing on parasites (note that the host cell nuclei are in a different focal plane) using a 40 × dry objective (0.7 NA) and EdU, and lectin numbers quantified using ImageJ software and the custom macro in Supplementary Method 1.

For NC(=O)NO [hydroxyurea], the “effect on HCT-8 cell DNA replication” value [1] was “blocked both parasite and HCT-8 cell DNA replication” and the “effect on parasite DNA replication” value (C. parvum) was “blocked both parasite and HCT-8 cell DNA replication”.
